Data from US4456594A, “N-Carboxyalkylproline-containing tripeptides” (SmithKline Beckman Corporation, priority 1982, dated 1984).
Where a name gives a salt, the structure may show the parent alone.

Legend:
anesthetized dogs = experiment: renal vasodilator activity test in anesthetized dogs (infusion); assay type: in vivo, dog; conditions: for renal vasodilator activity: primary test period of the renal anesthetized dog screening protocol
Excerpt: Representative specific results are included in the examples.

[1] = system: spontaneously hypertensive rats; experiment: spontaneously hypertensive rat (SHR) diuretic naturetic assay; assay type: in vivo; conditions: 25 and 50 mg/kg i.p.
Experimental: In this test, male, Okamato-Aoki strain, spontaneously hypertensive rats, aged 16-19 weeks, are fasted, then, the following afternoon, the first dose of test compound is administered, along with a 25 ml/kg p.o. load of normal saline. The animals are, then, placed in metabolism cages and urine collected for three hours for analysis. Indirect systolic blood pressure and heart rate are measured by a tail-cuff. An identical second dose of test compound is administered. After two hours, blood pressure and heart rate are again tested. The test compound is usually administered p.o. or i.p. in saline with 0.02% ascorbic acid.

[2] = system: angiotensin coverting enzyme; experiment: angiotensin converting enzyme inhibiting activity; assay type: in vivo; conditions: at 10 times its renally effective dose
[3] = system: dopamine-sensitive adenylate cyclase system; experiment: dopamine-sensitive adenylate cyclase system in vitro; assay type: biochemical
toad bladder = toad bladder anti-ADH assay
[4] = bradycardic effect (heart rate), test not stated; conditions: in vivo
[5] = two anesthetized dogs, 3, 30 and 300 μg/kg/min

For `O=C(O)CN1CCC[C@H]1C(=O)N[C@@H](Cc1ccccc1)C(=O)N1CCC[C@H]1C(=O)O` [Example 2 sulfate, N-carboxymethyl-L-prolyl-L-phenylalanyl-L-proline], the “renal blood flow (qualitative)” value (anesthetized dogs; 30 and 300 μg/kg/min) was “increased renal blood flow”.

In the case of `O=C(O)CN1CCC[C@H]1C(=O)NCCC(=O)N1CCC[C@H]1C(=O)O.O=S(=O)(O)O` [Example 3, N-carboxymethyl-L-prolyl-β-alanyl-L-proline sulfate], the “renal blood flow (qualitative)” value (anesthetized dogs; [5]) is reported as “increased renal blood flow”, the “renal vascular resistance (qualitative)” value (anesthetized dogs; [5]) is reported as “decreased renal vascular resistance” and the “Na+, K+ or urine excretion (qualitative)” value [1] is reported as “significant increase”. For the same compound, the “angiotensin converting enzyme inhibiting activity” value [2] was “did not have angiotensin coverting enzyme inhibiting activity”, the “stimulation or antagonism of dopamine-sensitive adenylate cyclase” value [3] was “did not stimulate or antagonize” and the anti-ADH activity (toad bladder) was “nor was it active”. For the same compound, the bradycardic effect [4] was “weak bradycardic effect”.

In the case of `CC(C(=O)O)N1CCC[C@H]1C(=O)NCCC(=O)N1CCC[C@H]1C(=O)O` (stereo partly drawn) [N-(1-carboxyethyl)-L-prolyl-β-alanyl-L-proline], the renal vasodilator activity (anesthetized dogs) is reported as “inactive”.

With `NCCCC[C@H](NC(=O)[C@@H]1CCCN1CC(=O)O)C(=O)N1CCC[C@H]1C(=O)O` [N-carboxymethyl-L-prolyl-L-lysyl-L-proline] the renal vasodilator activity (anesthetized dogs) was “inactive”.

With `O=C(O)CN1CCC[C@H]1C(=O)NCC(=O)N1CCC[C@H]1C(=O)O` [N-carboxymethyl-prolyl-glycyl-L-proline] the renal vasodilator activity (anesthetized dogs) was “inactive”.

With `NCCc1ccc(O)c(O)c1` [dopamine] the RVR-ED15 (anesthetized dogs; secondary test in three dogs, i.v.) was 3.5 µg/kg.
